Paper doi:10.1101/2021.04.29.441652v1 (biorxiv, 2021)

What was measured:
[1] = target: T1, human σ2 receptor (TMEM97) (Homo sapiens, UniProt Q5BJF2); assay: biochemical; assay type: Expi293 membranes
[2] = target: T1, human σ2 receptor (TMEM97); assay: biochemical; assay type: Expi293 membranes; conditions: read-out: % of control remaining
[3] = target: T1, human σ2 receptor (TMEM97); assay: [3H]-DTG competition binding, Expi293 membranes
[4] = target: T1, human σ2 receptor (TMEM97); assay: [3H]-DTG competition binding, Expi293 membranes; remark: listed apart in the source
[5] = 10 nM [3H]-DTG, 50 mM Tris pH 8.0, 37 °C, 90 min

T1 sequence (Q5BJF2 whole entry): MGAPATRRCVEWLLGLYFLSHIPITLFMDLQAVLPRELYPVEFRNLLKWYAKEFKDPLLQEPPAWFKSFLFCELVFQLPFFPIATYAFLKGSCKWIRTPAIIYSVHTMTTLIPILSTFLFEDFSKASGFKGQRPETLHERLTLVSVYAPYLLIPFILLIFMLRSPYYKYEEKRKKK

Row | Compound | Ki [1] [nM] | remaining activity at 1 µM [2] [%] | further results
1 | O[C@@H](COCc1ccccc1F)CN1CC(Cc2ccccc2C(F)(F)F)C1 [ZINC001254761628] | 4.7 | 1.1 | 
2 | C1CCC([C@@H]2CCN(CCC3CCOCC3)C2)CC1 [ZINC000661577595] | 1.76 | 6.4 | 
3 | C[C@@H](C(=O)N(C)Cc1cccc(F)c1)N1CC=C(c2c[nH]c3ncccc23)CC1 [ZINC000533478938] | 34.5 | 2.7 | 
4 | CC1CC(CN2CC(N3CCN(C(=O)[C@H](C)C4CCCC4)CC3)C2)C1 (stereo partly drawn) [ZINC000941634458] | 20.3 | 12.7 | 
5 | Cc1cccc(C)c1OC[C@H](O)CN1CC[C@@H](CC2CC2)C1 [ZINC000559413424] | 10.5 | 11.9 | 
6 | O[C@@]1(CNCc2cccc3c2OCC3)CCc2ccccc21 [ZINC000921927365] | 67.3 | 12.5 | 
7 | Cc1ccc([C@H]2CCN(CC3(O)CCC3)C2)c(C)c1 [ZINC000348332392] | 33.7 | 5.2 | 
8 | Fc1c(CN2CCN(C[C@@H]3CCCO3)CC2)ccc(Br)c1Cl [ZINC001237901728] | 27 | 4.5 | 
9 | C1=C(c2c[nH]c3ccccc23)CCN(CCCc2ccccc2)C1 [Z295861754] |  |  | Ki [3]: 57 nM
10 | CC(C)CCO[C@@H]1CCN(C[C@H]2CC3(CCCCC3)CO2)C1 [ZINC001196519317] | 2.4 | 1.2 | 
11 | CC1CCN(C2CCC(NC(=O)C(=O)Nc3ccc(C(C)C)cc3)CC2)CC1 (stereo not drawn) [ZINC000131303503] | 14.7 | 10.7 | 
12 | C1=C(c2c[nH]c3ncccc23)CCN(CCCc2ccccc2)C1 [Z1241145220] |  |  | Ki [4, 5]: 3.7 nM
13 | OC(CCc1ccccc1)CN1CC=C(c2c[nH]c3ncccc23)CC1 (stereo not drawn) [Z1665845742] |  |  | Ki [4, 5]: 5 nM
14 | ZINC450573233 |  |  | Ki [3, 5]: 4.3 nM
15 | c1ccc(CSc2cncc(N3CCC[C@H](N4CCCC4)CC3)n2)cc1 [ZINC000301801549] | 19.6 | 6.9 | 
16 | Fc1ccccc1[C@H]1CCN(CC#Cc2cccc(Cl)c2)C1 [ZINC001170548029] | 22.6 | 8.4 | 
17 | CC[C@@H](CO)N1CCC(CCc2ccc(F)cc2F)CC1 [ZINC001460312963] | 5.2 | 8 | 
18 | N/C(=N\Cc1ccc(F)cc1Br)NCC1CCC1 [ZINC000170908795] | 6.7 | 0.9 | 
19 | CN(C[C@]1(O)CCN(Cc2ccccc2)C1)C(=O)c1ccc(F)c2ccccc12 [ZINC000480785335] | 12.9 | 9.8 | 
20 | ZINC895657866 |  |  | Ki [3, 5]: 21.4 nM
21 | Cc1cc(C)c2cc(CN3CCC[C@H](N4CCCC4)CC3)[nH]c2c1 [ZINC000481989921] | 21.6 | 11.7 | 
22 | CC1CCC(O)(CN2CC(Cc3ccc(F)c(F)c3)C2)CC1 (stereo not drawn) [ZINC000548355486] | 2.4 | 0.4 | 

Row | Compound | Ki [1] [nM] | remaining activity at 1 µM [2] [%] | further results
23 | O[C@@H](CN1CC[C@@H](C2CCCCC2)C1)CC1(O)CCCCC1 [ZINC001460371878] | 7.92 | 10.9 | 
24 | CC(C)(NCc1ccc2c(c1)OCCO2)[C@H](O)c1ccccc1 [ZINC000895657866] | 21.4 | 3 | 
25 | C[C@@H](c1ccccc1)[C@@H](O)CN1CCC(c2c[nH]c3ncccc23)CC1 [ZINC000450573233] | 4.3 | 3.6 | 
26 | c1ccc(N2CCC(NC[C@@H]3C[C@H]4CCC[C@@H]4O3)CC2)cc1 [ZINC000872109019] | 14.7 | 11.6 | 
27 | Cc1ccc(CC2CN(CC3(O)CCSCC3)C2)cc1 [ZINC000656714762] | 67.8 | 9.3 | 
28 | CCOC(=O)[C@@H](CC)N1CCN(C2CCC(C(C)C)CC2)CC1 (stereo partly drawn) [ZINC000440321606] | 4.15 | 11.9 | 
29 | CC(C)(C)[C@@H]1CCN(C[C@@H](O)COCc2ccccc2F)C1 [ZINC000409447221] | 8.85 | 9.7 | 
30 | Cc1ccc(CCC2CCN(C(=O)CN3C[C@@H]4CC[C@@H](O)[C@H]4C3)CC2)cc1 [ZINC000544117725] | 10 | 0 | 
31 | CCc1nnsc1C(=O)N[C@H]1[C@@H]2CN(CC3CCCCCC3)C[C@@H]21 [ZINC000960887654] | 18.1 | 12.9 | 
32 | c1ccc(CCCN2CCC(c3nnc4ccccn34)CC2)cc1 [Z163048780] |  |  | Ki [4]: > 10000 nM
33 | CC(C)(C)[C@@H]1CCN(C[C@@H](O)CC2(O)CCCCC2)C1 [ZINC000878406056] | 7.66 | 11.8 | 
34 | O=C(CC1CCCC1)NC1CCN(C[C@H](O)C2CCCCC2)CC1 [ZINC000191344346] | 11.7 | 8.7 | 
35 | O[C@@H](COCc1ccccc1Cl)CN1CC[C@H](Cc2ccc(F)cc2)C1 [ZINC000605902355] | 13.7 | 11.5 | 
36 | C[C@@H]1C[C@@H](c2ccccc2)CCN1Cc1nc(C2CC2)cs1 [ZINC000439311985] |  | 106 | 
37 | FC(F)(F)c1ccc(-c2nc(CN3CC[C@H](N4CCCC4)C3)cs2)cc1 [ZINC000170742095] |  | 29.7 | 
38 | Clc1ccc(O[C@H]2CCN(C3CCCC3)C2)cc1 [ZINC000645238909] |  | 35.5 | 
39 | COC(=O)[C@H](c1cccc(Cl)c1Cl)N1CCC[C@H](N2CCCC2)C1 [ZINC000611661177] |  | 19.1 | 
40 | Cn1nc(C(=O)N[C@@H]2CCN(C(=O)Cc3cscn3)C2)ccc1=O [ZINC000942457739] |  | 89.4 | 
41 | CC(C)Sc1ccc([N+](=O)[O-])cc1C(=O)N(C)C[C@H]1CCCN1C [ZINC000421710406] |  | 81.8 | 
42 | Cc1n[nH]cc1C(=O)NC1CN(C(=O)[C@H]2C[C@@H]3CCCCN3C2)C1 [ZINC000997292482] |  | 87.9 | 
43 | CCN(C(=O)c1ccnc(C2CC2)n1)[C@H]1CCN(CC2CCC2)C1 [ZINC001033973784] |  | 43.3 | 
44 | CNC[C@H](C)NC(=O)C(=O)NCc1ccc(N2CCO[C@@H](C)C2)nc1 [ZINC000659691253] |  | 82.1 | 

Row | Compound | Ki [1] [nM] | remaining activity at 1 µM [2] [%] | further results
45 | O=C1NCC[C@@H]1C(=O)N[C@H]1CCN(CCn2cc(Cl)cn2)C1 [ZINC001015510639] |  | 87.4 | 
46 | COc1ccc(Br)cc1C/N=C1/NC[C@@H](C)N1 [ZINC000262658947] |  | 45.4 | 
47 | CCCn1c(C)cc(/C=C(/C#N)C(=O)NCCN(C)Cc2ccccc2)c1C [ZINC000064804934] |  | 85 | 
48 | O=C(CN[C@H]1CCNC12CCC2)NCCN1CCc2ccccc21 [ZINC000903470913] |  | 92.2 | 
49 | Cn1nccc1C(=O)N1C[C@@H](O)[C@H](NC(=O)c2c[nH]nc2C2CC2)C1 [ZINC001025444165] |  | 95.7 | 
50 | CCc1ccnc(CNC(=O)C(=O)N[C@@H]2C[C@H](C)N(C3CC3)C2)c1 [ZINC000358071102] |  | 113 | 
51 | CC(C)CC[C@@H](CO)N[C@H](C)c1nc2c(s1)CCCC2 [ZINC000624110289] |  | 49.3 | 
52 | O=C1NCCC[C@@H]1N1CC[C@@H](c2cccc(Cl)c2)C1 [ZINC000336580930] |  | 60.9 | 
53 | CC(C)N1CC[C@H](N(C)S(=O)(=O)C[C@H]2CCCCC2(F)F)C1 [ZINC000452100574] |  | 73.3 | 
54 | CC[C@H]1CN(Cc2ccc(-c3ccccc3)cc2F)C[C@H]1O [ZINC000507809396] |  | 14 | 
55 | O=C(NCC[C@@H]1CCN(C(=O)c2ccncn2)C1)c1c[nH]c(=O)cn1 [ZINC001060201073] |  | 76 | 
56 | CS(=O)(=O)N1CC(C(=O)N2CC(=O)N(CC(F)(F)F)C2)C1 [ZINC000907721339] |  | 119 | 
57 | N#Cc1csc(CN2CCC[C@H]2Cc2ccccc2)c1 [ZINC000124982852] |  | 89.7 | 
58 | Cc1ccc(NC(=O)C23CCC(CC2)N3)cc1[N+](=O)[O-] [ZINC000911907143] |  | 93.1 | 
59 | C[C@H](C(=O)NC[C@]1(O)CCN(CCC2CCCC2)C1)c1ccccc1 [ZINC001376084945] | 13.5 | 9.7 | 
60 | Cc1nn(Cc2ccc(F)cc2)c(Cl)c1CNC[C@@]1(O)CCN(C)C1 [ZINC000762555244] |  | 84.1 | 
61 | CN1CCC[C@@H]1C(=O)NC[C@H]1CCCN1c1ncnc2scnc12 [ZINC001061317651] |  | 62.6 | 
62 | Cc1c(C(=O)N[C@@H]2CN(C(=O)C3=COCCC3)C[C@@H]2O)cnn1C [ZINC000961583379] |  | 91.1 | 
63 | O=C(C1CC2(CCC2)C1)N1CCCN(C[C@@H](O)c2ccccc2)CC1 [ZINC000981787500] |  | 48.4 | 
64 | CC(C)(C)OC(=O)N1CCC[C@@](C)(CNC[C@@H](O)c2c(F)cccc2F)C1 [ZINC000819225653] |  | 17.6 | 
65 | Cc1cccc(NC(=O)N(C)C[C@H]2CCCN2C)c1C(=O)N1CCCC1 [ZINC000516964180] |  | 99.3 | 
66 | CN(C(=O)CN1CCC(c2cnc[nH]2)CC1)C(c1ccccc1)c1ccccc1 [ZINC000435004139] |  | 99.6 | 
